One experiment has as its target PrP^Sc (Homo sapiens, UniProt P04156). In kind it is binding. To be noted: for Exp. Mean (1 ul 10% CJD BH): streptavidin beads.
The target of a further experiment is PrPc (Homo sapiens, UniProt P04156). In kind it is binding.
[1] abbreviates: Table 5, 1 ul 10% CJD BH, 70% human plasma.
Setting [2] is: Table 5, 70% human plasma, ELISA signal.
Setting [3] is: Table 5, 70% human plasma, streptavidin beads, ELISA signal.
[4] abbreviates: Table 6, CJD brain homogenate in 20% human plasma.
Setting [5] is: Table 6, CJD brain homogenate in 20% human plasma, ELISA signal.

Several values for one entry are separate records, joined by “and”; a condition that tells them apart may be missing. Identical values can stand only once. Like-named read-outs stand apart in the source and are kept apart here. Where a SMILES comes first, the peptide text is derived from it. Where no end group is shown, it is not given here. [ ]: non-standard residue; d: D form. The star is where a group is joined. ξ: configuration not given here. Biotinyl(4ξ) = O=C1N[C@H]2CSC(CCCCC(=O)*)[C@H]2N1; Nspe = C[C@H](NCC(=O)O)c1ccccc1; NhArg = N=C(N)NCCCCNCC(=O)O; Nmpe = not defined here; Nae = not defined here; Nlys = NCCCCNCC(=O)O

Regarding `CC(=O)N(CCCCN)CC(=O)N(CC(=O)N(CCCCN)CC(=O)N(CCCCN)CC(=O)N(CC(=O)N(CCCCN)CC(=O)N[C@@H](CCCCNC(=O)CCCCC1SC[C@@H]2NC(=O)N[C@H]12)C(N)=O)[C@@H](C)c1ccccc1)[C@@H](C)c1ccccc1` (some centres unmarked) [Peptoid Reagent X] (Ac-[Nlys][Nspe][Nlys][Nlys][Nspe][Nlys]K(Biotinyl(4ξ))-NH2), the “Exp. Mean (as % of 68)” value on PrP^Sc (setting [1]) came to 114.5%. Besides, the “Exp. Mean (1 ul 10% CJD BH)” value at PrP^Sc (setting [2]) was determined as 478.7. Besides, the “Control Mean (1 ul 10% Normal BH)” value at PrPc (setting [3]) was found to be 7.28.

For “(GGG)KKRPKPGG [compound 68, reference compound]”, at PrP^Sc, the “Exp. Mean (as % of 68)” value was 100.0% and 100.1%; the Mean was 84.98 and 137.9; the “Mean (% of 68)” value is 100.0%. Also, the “Control Mean (1 ul 10% Normal BH)” value at PrPc is 19.2.

With `CC(=O)N(CCCCN)CC(=O)N(CCCCN)CC(=O)N(CCCCN)CC(=O)N(CC(=O)N(CCCCN)CC(=O)N(CC(=O)N[C@@H](CCCCNC(=O)CCCCC1SC[C@@H]2NC(=O)N[C@H]12)C(N)=O)[C@@H](C)c1ccccc1)[C@@H](C)c1ccccc1` (some centres unmarked) [Peptoid Reagent IX] (Ac-[Nlys][Nlys][Nlys][Nspe][Nlys][Nspe]K(Biotinyl(4ξ))-NH2), the “Exp. Mean (as % of 68)” value at PrP^Sc (Table 4, 1 ul 10% CJD BH, 70% human plasma) is given as 121.9%; on PrP^Sc (setting [1]), 126.5%. The “Exp. Mean (1 ul 10% CJD BH)” value on PrP^Sc (Table 4, 70% human plasma, ELISA signal) is recorded as 1039.4; at PrP^Sc (setting [2]) it was 528.8. In addition, the “Control Mean (1 ul 10% Normal BH)” value on PrPc (Table 4, 70% human plasma, streptavidin beads, ELISA signal) came out at 20.1; at PrPc (setting [3]) it was 9.47.

Turning to “Peptoid Reagent III: peptoid reagent comprising SEQ ID NO: 231, Nae-Nmpe-Nmpe-Nae-Nmpe-Nmpe-Nae-Nmpe-Nmpe ([Nae][Nmpe][Nmpe][Nae][Nmpe][Nmpe][Nae][Nmpe][Nmpe]; reading uncertain; also: printed as Nae-Nmpe-Nmpe-Nae-Nmpe-Nmpe-Nae-Nmpe-Nmpe)”, in the experiment with PrP^Sc (setting [4]), the “Mean (% of 68)” value amounted to 2.15%. Moreover, the Mean with PrP^Sc (setting [5]) came to 1.83.

For the compound `CC(=O)N(CCCCN)CC(=O)N(CCCCN)CC(=O)N(CCCCN)CC(=O)N(CCCCN)CC(=O)N(CCCCN)CC(=O)N[C@@H](CCCCNC(=O)CCCCC1SC[C@@H]2NC(=O)N[C@H]12)C(N)=O` (some centres unmarked) [Peptoid Reagent I], the “Mean (% of 68)” value at PrP^Sc (setting [4]) was found to be 104.31%. The same compound registered a Mean at PrP^Sc (setting [5]) of 88.64. Besides, at PrP^Sc (Table 8, 2 microliters of 10% CJD brain homogenate in 70% human plasma), the “CJD Mean” value is 124.47. Moreover, at PrPc (Table 8, 2 microliters of 10% normal brain homogenate in 70% human plasma), the “Normal Mean” value was found to be 3.31.

Take `CC(=O)N(CCCCN)CC(=O)N(CCCCN)CC(=O)N(CCCCNC(=N)N)CC(=O)N(CC(=O)N(CCCCN)CC(=O)N(CC(=O)N[C@@H](CCCCNC(=O)CCCCC1SC[C@@H]2NC(=O)N[C@H]12)C(N)=O)[C@@H](C)c1ccccc1)[C@@H](C)c1ccccc1` (some centres unmarked) [Peptoid Reagent II] (Ac-[Nlys][Nlys][NhArg][Nspe][Nlys][Nspe]K(Biotinyl(4ξ))-NH2): on PrP^Sc (setting [1]), the “Exp. Mean (as % of 68)” value turned out to be 110.8%. In addition, on PrP^Sc (setting [2]), the “Exp. Mean (1 ul 10% CJD BH)” value amounted to 463.5. The “Mean (% of 68)” value on PrP^Sc (setting [4]) worked out at 124.85%. On PrP^Sc (setting [5]), the Mean turned out to be 106.10. Also, the “Control Mean (1 ul 10% Normal BH)” value at PrPc (setting [3]) is reported as 7.02.

Take “(GGG)QWNKPSKPKTN [compound 14, reference compound]”: on PrP^Sc, the Mean worked out at 4.74 and the “Mean (% of 68)” value is on record as 5.58%.

Source of the values: patent US7834144B2 (priority 2005, dated 2010).
